Assay results as given in US20040152772A1, “1-butyric acid derivatives and the use thereof” (priority 2001, published 2004).

Legend:
[1] = tested on: Novikoff hepatoma cells; experiment: Proliferation of Novikoff hepatoma cells, cell count per flask after four days of cultivation; type: cell-based; conditions: FIGS. 1 and 2
Excerpt: The Novikoff hepatoma cells that were used derived from the Tumor Bank of the German Cancer Research Center, Heidelberg (Cancer Research 1951, 17, 1010). 100,000 cells were spread out per 25 cm^2 of cultivation surface on each occasion. After having been dissolved in a solvent, such as e.g. water, diluted ethanol, dimethyl sulfoxide or a similar material that is suitable for use in cell cultures, the substance in accordance with the invention according to Example 1, or L-cycloserine, or dehydrothreonine was added to the culture medium in increasing concentrations, e.g. L-cycloserine (Compound 16) or dehydrothreonine (Compound 2) in the range of concentrations from 80 μM-5000 μM; and carbomethoxypropionyl cyanide (Compound 13) in the range of concentrations from 100 μM-300 μM. The cell count per flask was enumerated after four days of cultivation.

[2] = tested on: Novikoff cells; experiment: Effect on the metabolism (flow of glycolysis) of Novikoff cells; type: cell-based; conditions: FIG. 3

| SMILES | inhibition of proliferation (cell count per flask) in comparison to the control sample ([1]; concentrations 80 μM-5000 μM) | flow of glycolysis [2] | inhibition of proliferation (cell count per flask) in comparison to the control sample ([1]; concentrations 100 μM-300 μM) |
| --- | --- | --- | --- |
| C/C(O)=C(/N)C(=O)O [Compound 2, dehydrothreonine] | dose-dependent inhibition of proliferation |  |  |
| COC(=O)CCC(=O)C#N [Compound 9, methyl ester of 4-cyano, 4-oxo-butanoic acid] |  | massively inhibited the flow of glycolysis | dose-dependent inhibition of proliferation |
| N[C@H]1CONC1=O [Compound 16, L-cycloserine] | dose-dependent inhibition of proliferation |  |  |
